# Laboratory results as given in patent US20220241437A1, “ATHER[…] AGENTS AND METHODS OF USING THE SAME” (THE GENERAL HOSPITAL CORPORATION, priority 2015, published 2022).
# Like-named read-outs stand apart in the source and are kept apart here.
# Assays:
# [1] = tested on: atheroma; assay: NIRF / multi-wavelength fluorescence reflectance imaging (FRI) of resected aortas in rabbit atherosclerosis model; assay type: in vivo; settings: for co-localization in atherosclerotic zones by FRI: MB 1 mg/kg 24 hours and ICG 0.5 mg/kg 0.5 hours before imaging, rabbit m464
# Excerpt: New Zealand white rabbits (3-4 kg, Charles River Laboratories, n=2) were fed a high cholesterol diet (0.3% total cholesterol, 5% peanut oil; Research Diets) and were subjected to an infrarenal abdominal aorta injury using a 3F Fogarty embolectomy balloon (Edwards Lifesciences). The 3F balloon was inserted percutaneously via the femoral artery, inflated to nominal pressure, and withdrawn under tension and repeated. After recovery from the injury, the rabbits were continued on the 0.3% high cholesterol diet, and their total serum cholesterol levels were routinely measured (Hemagen Diagnostics).
# 24 hours prior to atheroma imaging, 1 mg/kg concentration of MB in a phosphate buffer saline solution was administered to the rabbit subjects intravenously.
# 28 days after aortic injury and continuation on the high cholesterol diet, the rabbits were anesthetized and imaged using various imaging modalities. An aortic angiography (ARCADIS Varic C-arm fluoroscopy unit, Siemens) was performed on the rabbits with a manual contrast injection. After the angiography, an intravascular ultrasound (IVUS) was performed using a catheter (iLab, Boston Scientific). The IVUS catheter was used with an automated 0.5 mm/second pullback across the previously injured aortic region to assess plaque burden. Finally, the rabbit subjects underwent near-infrared fluorescence optical coherence tomography (NIRF-OCT) imaging.
# Following multimodality imaging, the rabbits were euthanized, and their aortas were removed and placed in saline at 4° C. The freshly resected aortas were imaged using multi-wavelength fluorescence reflectance imaging (FRI) with fluorescein isothiocyanite (FITC) and MB having emission wavelengths of 535 nm and 700 nm, respectively. While using the FRI system (Kodak ImageStation 4000, Carestream Health), the excitation source used for triggering FITC's autofluorescence was focused around 470 nm with an exposure time of 4 seconds. MB's near-infrared fluorescence was triggered by excitation wavelengths around 630 nm for 64 seconds. […] The target-to-background ratios(TBRs) were calculated for each ROI as the mean plaque fluorescence divided by the background fluorescence measured in the adjacent normal vessel.
# A concentration of 1 mg/kg MB in phosphate buffer saline solution was co-injected with a 0.5 mg/kg solution of indocyanine green (ICG) into the aorta of the rabbit subject, m464, 24 hours and 0.5 hours before imaging, respectively. Fluorescence reflectance imaging (FRI) was performed to evaluate uptake and distribution of MB and ICG. […]
# The TBRs were calculated as the mean fluorescence divided by the background fluorescence of the adjacent normal aorta. […]
# [2] = phosphate buffer saline solution; cited from earlier work
# [3] = tested on: atherosclerotic lesions; assay: Fluorescence microscopy, histology and RAM11 immunohistochemistry of aorta/vessel cross-sections; assay type: in vivo, rabbit
# Method: A histology analysis for the aortas was then performed. The excised aortas were filled with an optimal cutting temperature compound and then snap frozen on dry ice. Using a cryostat (Leica CM3050 S), 8 μm sections of the aortas were obtained. The tissue sections were stained for hemotoxylin and eosin (H&E), Masson's Trichrome, and Oil Red 0 (ORO) histological imaging. Additionally, immunohistochemistry tests were performed for macrophages (RAM11; Dako).
# Unstained tissue sections were imaged with a multi-wavelength fluorescence microscope (Nikon Eclipse 90i) for FITC and MB. FITC's autofluorescence emissions at 535 nm were excited with a 480 nm source, and MB's near-infrared fluorescent emissions at 700 nm were excited with a 630 nm Cy5.5 source.
# The co-localization of MB and ICG found through FRI was also verified using high-resolution epifluorescence microscopy of fresh-frozen tissue cross-sections from the areas of interest outlined in the FRI results. […] Further, the MB binding was associated with cellular uptake when evaluating sections counterstained with a fluorescent nuclear stain.
# Fluorescent microscopy (FM) was performed on a cross-section of the aorta of m464 in the fluorescein isothiocyanite (FITC) and Cy5 channels. […] The white areas represent the near-infrared fluorescence of MB under a Cy5.5 source. The grey areas represent the autofluorescence of FITC. There is little overlap between the MB and FITC areas, evidencing the unique uptake and binding profile for MB in atherosclerotic structures not targeted by other imaging agents. […] Again, the distinction between the areas of MB binding and FITC autofluorescence indicate MB's utility as an atheroma targeting agent unlike any other. Further, the TBR of MB in FIGS. 6A and 6B illustrates the robustness of the targeting profile of MB.
# Moreover, FIGS. 7A-7C show FM images of an axial section of a subject's vessel including a venous thrombus after undergoing vessel injury according to the high inflammation protocol. The subject was injected with a 1 mg/kg MB concentration in a phosphate buffer saline solution 24 hours prior to imaging. […] This again evidences the unique binding pattern that MB may offer for vascular imaging.
# MB binding in the aortas of the subjects was also evaluated using traditional histological stains. A tissue cross-section fluorescently imaged to evaluate MB uptake was further treated with a hemotoxylin and eosin (H&E) stain. […] Even less cellular areas were also found to have MB uptake.
# Finally, the cross-section was imaged using immunohistochemical-staining techniques. The immunohistochemical stain RAM11 which is a known macrophage marker was used to cross-correlate the MB binding images. […] These areas where not limited to a specific location. For example, one area of consistent MB and RAM11 co-localization was located near the luminal side of internal elastic lamina as well as other regions of the atheroma.
# [4] = Half-life of MB in rabbit bloodstream from fluorescence intensity over time; assay type: in vivo; settings: blood, intravenous, 1 mg/kg
# Method: The methylene blue (MB) binding and uptake was evaluated in a rabbit model of atherosclerosis of the abdominal aorta. […] The half-life for MB in rabbit bloodstreams was measured in two subjects, m463 and m464 that had been subjected to a high cholesterol diet and the high inflammation protocol.
# [5] = healthy human volunteers, intravenous (Peter et al. 2000); cited from earlier work
Structure (SMILES),co-localization in atherosclerotic zones by FRI [1],molar attenuation coefficient [2],quantum yield [2],quenching threshold [2],"targeting to atheroma in FM image of aortic cross-section ([3]; 1 mg/kg i.v. 24 hours before imaging, NIRF absent from normal arterial wall)",uptake in vessel with venous thrombus (FM) ([3]; 1 mg/kg in phosphate buffer saline 24 hours prior to imaging),association of uptake with macrophages (RAM11 staining) ([3]; aortic cross-section),depth of binding in lesions (H&E histology) ([3]; aortic cross-section),localization of uptake by high-resolution epifluorescence microscopy ([3]; fresh-frozen tissue cross-sections),"half-life ([4]; 1 phase exponential decay of fluorescence intensity, read-out: half-life of MB in bloodstream (converted))","half-life ([4]; mean of m463 and m464, read-out: average of the MB half-life in the rabbits tested (converted))","half-life ([4]; rabbit subject m463, 1 phase exponential decay of fluorescence intensity, read-out: half-life of MB in bloodstream (converted))","half-life ([4]; rabbit subject m463, read-out: half-life of MB in bloodstream (converted))",half-life ([4]; read-out: half-life of MB in bloodstream (converted)),"deposition in plaques detected by NIRF imaging ([1]; 1 mg/kg intravenous, rabbit atherosclerosis model)","target-to-background ratios (TBRs) of aortas ([1]; MB 1 mg/kg i.v. 24 hours before imaging, versus aortas without MB, FRI)",blood half-life [5]
"CC1(C)C(/C=C/C=C/C=C/C=C2\N(CCCCS(=O)(=O)O)c3ccc4ccccc4c3C2(C)C)=[N+](CCCCS(=O)(=O)[O-])c2ccc3ccccc3c21 [ICG, Indocyanine green]",co-localization of MB and ICG in the atherosclerotic zones of the aorta,,,,,,,,,,,,,,,,
"CN(C)c1ccc2nc3ccc(N(C)C)cc3[s+]c2c1.[Cl-] [MB, [7-(dimethylamino)phenothiazin-3-ylidene]-dimethylazanium chloride]",co-localization of MB and ICG in the atherosclerotic zones of the aorta,"73,000 cm^−1/M",5.3%,12.5 µM,highly targeted to the atheroma,distinct spots or drops along the inner vessel walls and in the venous thrombus,associated with areas positive for macrophages in the RAM11 staining,seen in specific regions permeating the entire depth of the lesions,localize in both microscopic lesions and atherosclerotic lesions with greater than 60% stenosis,7.35 h,~5.25 h,3.13 h,~3 h,~7.4 h,can produce deposition of MB in plaques of rabbits,higher TBRs than those without MB,5.25 h
